Data on 19 compounds can be found in patent US11472803B2, “7-substituted 1-aryl-naphthyridine-3-carboxylic acid amides and use thereof” (Bayer Aktiengesellschaft, priority 2016, dated 2022).

In this test the target is T1, human M2 receptor (Homo sapiens, UniProt P08172).
T1 construct: expressed in transfected cells; host or cells: CHO-DUKX (CHO-DUKX-M2-GIRK)
T1 sequence (P08172 1-466): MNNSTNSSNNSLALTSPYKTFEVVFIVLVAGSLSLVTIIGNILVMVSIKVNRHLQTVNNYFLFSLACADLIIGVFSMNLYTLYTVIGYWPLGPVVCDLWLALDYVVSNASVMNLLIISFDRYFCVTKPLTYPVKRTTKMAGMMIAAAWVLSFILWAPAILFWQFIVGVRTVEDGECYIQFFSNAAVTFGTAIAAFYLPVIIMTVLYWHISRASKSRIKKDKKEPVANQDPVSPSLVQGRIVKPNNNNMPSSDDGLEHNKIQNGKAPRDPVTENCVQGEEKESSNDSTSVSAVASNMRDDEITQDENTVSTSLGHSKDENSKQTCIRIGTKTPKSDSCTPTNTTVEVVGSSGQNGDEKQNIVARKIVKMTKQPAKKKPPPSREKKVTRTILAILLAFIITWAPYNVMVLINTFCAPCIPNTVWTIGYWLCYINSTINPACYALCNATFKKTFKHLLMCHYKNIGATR
Description: Functional M2-GIRK1/4 activation test: allosteric potency (EC50) and efficiency at EC20 acetylcholine. In kind it is cell-based. The conditions noted are these: CHO-DUKX-M2-GIRK cells; for EC50: voltage-sensitive dye, acetylcholine at EC20, in some cases mean of two or more determinations. In a few lines:
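Positive allosteric modulation measured as boosting of an EC20 acetylcholine response: hyperpolarization via GIRK1/4 in CHO-DUKX-M2-GIRK cells, monitored by membrane-potential dye fluorescence over 60 s after agonist, compound preadded. Hill-function fit gives EC50 and efficiency.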

Setting [1] is: boosting of the acetylcholine effect at EC20 acetylcholine concentration.

One may read the EC50 as the concentration needed to bring the measured effect to its halfway point. For orientation: Emax means the size of the effect at its maximum, as opposed to the concentration needed.

`CC(C)C(NC(=O)c1cn(-c2c(F)cc(F)cc2F)c2nc(N3CC[C@H](O)C3)c(F)cc2c1=O)C(F)(F)F` (single isomer, unassigned) [Example 140]: the EC50 worked out at 5.3 nM. The same compound yielded an Efficiency under setting [1] of 95%.

In turn, `CC(C)[C@@H](C)NC(=O)c1cn(-c2c(F)cc(F)cc2F)c2nc(N3C[C@@H](O)[C@@H](O)C3)c(F)cc2c1=O` [Example 99, 7-[(3R,4S)-3,4-Dihydroxypyrrolidin-1-yl]-6-fluoro-N-[(2R)-3-methylbutan-2-yl]-4-oxo-1-(2,4,6-trifluorophenyl)-1,4-dihydro-1,8-naphthyridine-3-carboxamide] returned an EC50 of 35.5 nM. Also, the Emax under setting [1] was found to be 96%.

Compound `C[C@H](NC(=O)c1cn(-c2c(F)cc(F)cc2Cl)c2nc(N3C[C@@H](O)[C@H](O)C3)c(F)cc2c1=O)C(F)(F)F` (single isomer, unassigned) [Example 225] returned an EC50 of 110 nM. Further, the Emax under setting [1] amounted to 82%.

`CCC(NC(=O)c1cn(-c2c(F)cc(F)cc2F)c2nc(N3CCOCC3)c(F)cc2c1=O)C(F)(F)C(F)(F)F` (racemic) [Example 148, 6-Fluoro-7-(morpholin-4-yl)-4-oxo-N-[1,1,1,2,2-pentafluoropentan-3-yl]-1-(2,4,6-trifluoro-phenyl)-1,4-dihydro-1,8-naphthyridine-3-carboxamide] registered an EC50 of 18.7 nM. Further, the Emax under setting [1] was 96%.

Compound `O=C(N[C@@H](C1CC1)C(F)(F)F)c1cn(-c2c(F)cc(F)cc2Cl)c2nc(N3C[C@@H](O)[C@H](O)C3)c(F)cc2c1=O` (single isomer, unassigned) [Example 51] displayed an EC50 of 36 nM. This compound also had an Emax under setting [1] of 81%.

Compound `CC(C)C(NC(=O)c1cn(-c2c(F)cc(F)cc2F)c2nc(N3C[C@@H](O)[C@@H](O)C3)c(F)cc2c1=O)C(F)(F)F` (single isomer, unassigned) [Example 137] registered an EC50 of 3.3 nM. This compound showed an Emax under setting [1] of 91%.

With `O=C(NCC(F)(F)F)c1cn(-c2c(F)cc(F)cc2F)c2nc(N3C[C@@H](O)[C@H](O)C3)c(F)cc2c1=O` [Example 220, 7-[(3R,4R)-3,4-dihydroxypyrrolidin-1-yl]-6-fluoro-4-oxo-N-(2,2,2-trifluoroethyl)-1-(2,4,6-trifluorophenyl)-1,4-dihydro-1,8-naphthyridine-3-carboxamide], the EC50 came to 80 nM. Besides, the Emax under setting [1] was determined as 85%.

`O=C(NC(C(F)(F)F)C(F)(F)F)c1cn(-c2c(F)cc(F)cc2F)c2nc(N3CCCC[C@@H]3CO)c(F)cc2c1=O` [Example 188, 6-Fluoro-N-(1,1,1,3,3,3-hexafluoropropan-2-yl)-7-[(2R)-2-(hydroxymethyl)piperidin-1-yl]-4-oxo-1-(2,4,6-trifluorophenyl)-1,4-dihydro-1,8-naphthyridine-3-carboxamide] yielded an EC50 of 26 nM. Moreover, the Emax under setting [1] was found to be 97%.

With `COC[C@@H](NC(=O)c1cn(-c2c(F)cc(F)cc2F)c2nc(N3C[C@@H](O)[C@@H](O)C3)c(F)cc2c1=O)C(C)C` [Example 102, 7-[(3R,4S)-3,4-Dihydroxypyrrolidin-1-yl]-6-fluoro-N-[(2S)-1-methoxy-3-methylbutan-2-yl]-4-oxo-1-(2,4,6-trifluorophenyl)-1,4-dihydro-1,8-naphthyridine-3-carboxamide], the midpoint of the response, the EC50, lay at 295 nM. The Emax under setting [1] is 92%.

Turning to `CC(C)(C)NC(=O)c1cn(-c2c(F)cc(F)cc2Cl)c2nc(N3C[C@@H](O)[C@H](O)C3)c(F)cc2c1=O` [Example 74, N-tert-Butyl-1-(2-chloro-4,6-difluorophenyl)-7-[(3R,4R)-3,4-dihydroxypyrrolidin-1-yl]-6-fluoro-4-oxo-1,4-dihydro-1,8-naphthyridine-3-carboxamide], the EC50 is 3.9 nM. The same compound returned a maximal effect (Emax) under setting [1] of 95%.

`CC(C)(C)NC(=O)c1cn(-c2c(F)cc(F)cc2F)c2nc(N3C[C@@H](O)[C@@H](O)C3)c(F)cc2c1=O` [Example 80, N-tert-Butyl-7-[(3R,4S)-3,4-dihydroxypyrrolidin-1-yl]-6-fluoro-4-oxo-1-(2,4,6-trifluoro-phenyl)-1,4-dihydro-1,8-naphthyridine-3-carboxamide] gave an EC50 of 24 nM. Moreover, the Emax under setting [1] amounted to 100%.

The compound `O=C(NC(C(F)(F)F)C(F)(F)F)c1cn(-c2ncc(F)cc2F)c2nc(N3CCC[C@@H]3CO)c(F)cc2c1=O` [Example 197, 1-(3,5-Difluoropyridin-2-yl)-6-fluoro-N-(1,1,1,3,3,3-hexafluoropropan-2-yl)-7-[(2R)-2-(hydroxymethyl)pyrrolidin-1-yl]-4-oxo-1,4-dihydro-1,8-naphthyridine-3-carboxamide] showed an EC50 of 51 nM. The compound also yielded an Emax under setting [1] of 100%.

With `CC[C@H](NC(=O)c1cn(-c2c(F)cc(F)cc2F)c2nc(N3C[C@@H](O)[C@H](O)C3)c(Cl)cc2c1=O)C(F)(F)F` [Example 38, 6-chloro-7-[(3R,4R)-3,4-dihydroxypyrrolidin-1-yl]-4-oxo-N-[(2S)-1,1,1-trifluorobutan-2-yl]-1-(2,4,6-trifluorophenyl)-1,4-dihydro-1,8-naphthyridine-3-carboxamide], a half-maximal effect (EC50) was put at 10.1 nM. Under setting [1], this compound showed an Emax of 100%.

Compound `CCC(NC(=O)c1cn(-c2c(F)cc(F)cc2F)c2nc(N3CC[C@H](O)C3)c(F)cc2c1=O)C(C)C` (single isomer, unassigned) [Example 117] yielded an EC50 of 6.9 nM. Further, the Emax under setting [1] worked out at 99%.

`O=C(N[C@@H](C1CC1)C(F)(F)F)c1cn(-c2ncc(F)cc2F)c2nc(N3CC[C@H](O)C3)c(F)cc2c1=O` [Example 153, N-[(1S)-1-Cyclopropyl-2,2,2-trifluoroethyl]-1-(3,5-difluoropyridin-2-yl)-6-fluoro-7-[(3S)-3-hydroxypyrrolidin-1-yl]-4-oxo-1,4-dihydro-1,8-naphthyridine-3-carboxamide] gave an EC50 of 48 nM. This compound also came in with an Emax under setting [1] of 99%.

In turn, `CCC(NC(=O)c1cn(-c2c(F)cc(F)cc2F)c2nc(N3C[C@@H](O)[C@@H](O)C3)c(F)cc2c1=O)C(C)C` (mixture of isomers) [Example 104, 7-[(3R,4S)-3,4-Dihydroxypyrrolidin-1-yl]-6-fluoro-N-[2-methylpentan-3-yl]-6-fluoro-4-oxo-1-(2,4,6-trifluorophenyl)-1,4-dihydro-1,8-naphthyridine-3-carboxamide] returned an EC50 of 13 nM. The compound also showed an Emax under setting [1] of 97%.

On to `CC(C)(NC(=O)c1cn(-c2c(F)cc(F)cc2Cl)c2nc(N3C[C@@H](O)[C@H](O)C3)c(F)cc2c1=O)C(F)(F)F` (single isomer, unassigned) [Example 49], for which it took 68 nM to reach a half-maximal effect (EC50). Under setting [1], this compound gave an Emax of 74%.

`CCN(CC(C)O)c1nc2c(cc1F)c(=O)c(C(=O)N[C@@H](C1CC1)C(F)(F)F)cn2-c1c(F)cc(F)cc1F` (single isomer, unassigned) [Example 66] yielded an EC50 of 35 nM. Further, the Emax under setting [1] was 92%.

The compound `CC(COC(F)(F)F)NC(=O)c1cn(-c2ccc(F)cc2F)c2ncc(Cl)cc2c1=O` (racemic) [Example 135, 6-Chloro-1-(2,4-difluorophenyl)-4-oxo-N-[1-(trifluoromethoxy)propan-2-yl]-1,4-dihydro-1,8-naphthyridine-3-carboxamide] had an EC50 of 2610 nM. Under setting [1], this compound registered an Emax of 75%.
